According to patent US12077503B2, “Substituted cyclic amides and their use as herbicides” (FMC CORPORATION, priority 2015, dated 2024):
Where two headings read alike, the source gives them in different places.

Tests used:
Assay in all cases: Test A postemergence
Format in all cases: in vivo
[1] = tested on: Galium (catchweed bedstraw, Galium aparine); conditions: Galium, post-emergence, 240 h, Postemergence; for pest or weed control at 125 g/ha: 125 g ai/ha; for pest or weed control at 500 g/ha: 500 g ai/ha, visual injury, 0 to 100 scale (0 no effect, 100 complete control), approx. 10 d
Procedure, shortened: (§1)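 Seeds sprayed preemergence with a directed soil spray, or plants at 2 to 10 cm height and one- to two-leaf stage sprayed postemergence, with test chemicals in a non-phytotoxic solvent mixture containing surfactant, in loam soil–sand blend. Injury rated visually against untreated controls after about 10 d in greenhouse, 0 (no effect) to 100 (complete control).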

[2] = tested on: barnyardgrass (Echinochloa crus-galli); conditions: Echinochloa crus-galli, post-emergence, 240 h, Postemergence; for pest or weed control at 125 g/ha: 125 g ai/ha; for pest or weed control at 500 g/ha: 500 g ai/ha, visual injury, 0 to 100 scale (0 no effect, 100 complete control), approx. 10 d
Procedure, shortened: as §1

[3] = tested on: blackgrass (Alopecurus myosuroides); conditions: Alopecurus myosuroides, post-emergence, 240 h, Postemergence; for pest or weed control at 125 g/ha: 125 g ai/ha; for pest or weed control at 500 g/ha: 500 g ai/ha, visual injury, 0 to 100 scale (0 no effect, 100 complete control), approx. 10 d
Procedure, shortened: as §1

corn (Zea mays) = conditions: Zea mays, post-emergence, 240 h, Postemergence; for plant injury at 125 g/ha: visual rating about 10 d after treatment, read-out: Corn plant response rating (0 to 100 scale); for Corn plant response rating (crop injury, 0 = no effect, 100 = complete kill) at 500 g/ha: 500 g ai/ha, visual injury, 0 to 100 scale (0 no effect, 100 complete control), approx. 10 d
Procedure, shortened: as §1

[4] = tested on: ragweed (common ragweed, Ambrosia elatior); conditions: Ambrosia artemisiifolia, post-emergence, 240 h, Postemergence; for pest or weed control at 125 g/ha: 125 g ai/ha; for pest or weed control at 500 g/ha: 500 g ai/ha, visual injury, 0 to 100 scale (0 no effect, 100 complete control), approx. 10 d
Procedure, shortened: as §1

[5] = tested on: wheat (Triticum aestivum); conditions: Triticum aestivum, post-emergence, 240 h, Postemergence; for plant injury at 125 g/ha: 125 g ai/ha; for plant injury at 500 g/ha: 500 g ai/ha, visual injury, 0 to 100 scale (0 no effect, 100 complete control), approx. 10 d
Procedure, shortened: as §1

[6] = visual rating about 10 d after treatment, read-out: Galium plant response rating (0 to 100 scale)
[7] = read-out: Plant response rating, Galium
[8] = visual rating about 10 d after treatment, read-out: Barnyardgrass plant response rating (0 to 100 scale, 0 no effect, 100 complete control)
[9] = read-out: Plant response rating, Barnyardgrass
[10] = visual rating about 10 d after treatment, read-out: Blackgrass plant response rating (0 to 100 scale)
[11] = read-out: Plant response rating, Blackgrass
[12] = visual rating about 10 d after treatment, read-out: Ragweed plant response rating (0 to 100 scale)
[13] = read-out: Plant response rating, Ragweed
[14] = visual rating about 10 d after treatment, read-out: Wheat plant response rating (0 to 100 scale)
[15] = read-out: Plant response rating, Wheat

Structure (SMILES)	pest or weed control at 125 g/ha [1, 6] [%]	pest or weed control at 500 g/ha [1, 7] [%]	pest or weed control at 125 g/ha [2, 8] [%]	pest or weed control at 500 g/ha [2, 9] [%]	pest or weed control at 125 g/ha [3, 10] [%]	pest or weed control at 500 g/ha [3, 11] [%]	plant injury at 125 g/ha (corn (Zea mays); 125 g ai/ha) [%]	Corn plant response rating (crop injury, 0 = no effect, 100 = complete kill) at 500 g/ha (corn (Zea mays)) [%]	pest or weed control at 125 g/ha [4, 12] [%]	pest or weed control at 500 g/ha [4, 13] [%]	plant injury at 125 g/ha [5, 14] [%]	plant injury at 500 g/ha [5, 15] [%]	pest or weed control at 125 g/ha ([1]; visual injury after approx. 10 d, 0 to 100 scale, 0 no effect, 100 complete control, read-out: Plant response rating, Galium) [%]	pest or weed control at 125 g/ha ([2]; visual injury after approx. 10 d, 0 to 100 scale, 0 no effect, 100 complete control, read-out: Plant response rating, Barnyardgrass) [%]	pest or weed control at 125 g/ha ([3]; visual injury after approx. 10 d, 0 to 100 scale, 0 no effect, 100 complete control, read-out: Plant response rating, Blackgrass) [%]	Corn plant response rating (crop injury, 0 = no effect, 100 = complete kill) at 125 g/ha (corn (Zea mays); 125 g ai/ha, visual injury after approx. 10 d, 0 to 100 scale, 0 no effect, 100 complete control) [%]	pest or weed control at 125 g/ha ([4]; visual injury after approx. 10 d, 0 to 100 scale, 0 no effect, 100 complete control, read-out: Plant response rating, Ragweed) [%]	plant injury at 125 g/ha ([5]; visual injury after approx. 10 d, 0 to 100 scale, 0 no effect, 100 complete control, read-out: Plant response rating, Wheat) [%]
COc1cc([C@H]2CN(C)C(=O)[C@@H]2C(=O)Nc2cccc(F)c2C)ccc1F [Compound 1300]	20	40	80	90	30	50	20	60	0	0	0	50						
CN1C[C@H](c2cccc(C(C)(F)F)c2)[C@@H](C(=O)Nc2ccc(F)cc2F)C1=O [Compound 1319]	60	60	90	90	70	80	70	80	0	0	60	60						
CN1C[C@H](c2ccc3c(c2)CCO3)[C@@H](C(=O)Nc2cccc(F)c2F)C1=O [Compound 1324]	30	50	90	90	40	60	60	80	20	40	30	70						
Cc1c(F)ccc([C@H]2CNC(=O)[C@@H]2C(=O)Nc2ccccc2F)c1F [Compound 1326]	0	20	70	90	0	0	0	0	0	0	0	0						
CN1C[C@H](c2cc(C(F)(F)F)cs2)[C@@H](C(=O)Nc2cccc(F)c2F)C1=O [Compound 1377]	40	60	90	90	20	60	50	80	20	60	30	60						
CN1C[C@H](c2ccc(C(F)(F)F)cc2)[C@@H](C(=O)Nc2cccc(F)c2C#N)C1=O [Compound 1380]	50	50	60	80	40	60	50	80	40	50	40	40						
CN1C[C@H](c2ccc(C(F)F)cc2)[C@@H](C(=O)Nc2cccc(F)c2F)C1=O [Compound 1383]	60	60	100	100	40	50	80	90	50	60	60	80						
CSc1ccccc1NC(=O)[C@H]1C(=O)N(C)C[C@@H]1c1ccc(C(F)(F)F)cc1 [Compound 1391]		70		100		70		80		60		60	70	90	40	0	20	30
